How the values were obtained:
168 GPCRs [1] = biological target: T1, 168 GPCRs (Homo sapiens, UniProt P33032); experiment: β-arrestin GPCR screen (PathHunter/GPCRmax), agonist mode; type: cell-based
T1 construct: host or cells: PathHunter cell lines
Procedure: (§1) For agonist determination, cells were incubated with sample to induce response. […] Vehicle concentration was 1%.

168 GPCRs [2] = biological target: T2, 168 GPCRs (Homo sapiens, UniProt O43603); experiment: as above; type: cell-based; conditions: GALR2; Agonist; 1 uM
T2 construct: host or cells: PathHunter cell lines
T2 sequence (O43603 whole entry): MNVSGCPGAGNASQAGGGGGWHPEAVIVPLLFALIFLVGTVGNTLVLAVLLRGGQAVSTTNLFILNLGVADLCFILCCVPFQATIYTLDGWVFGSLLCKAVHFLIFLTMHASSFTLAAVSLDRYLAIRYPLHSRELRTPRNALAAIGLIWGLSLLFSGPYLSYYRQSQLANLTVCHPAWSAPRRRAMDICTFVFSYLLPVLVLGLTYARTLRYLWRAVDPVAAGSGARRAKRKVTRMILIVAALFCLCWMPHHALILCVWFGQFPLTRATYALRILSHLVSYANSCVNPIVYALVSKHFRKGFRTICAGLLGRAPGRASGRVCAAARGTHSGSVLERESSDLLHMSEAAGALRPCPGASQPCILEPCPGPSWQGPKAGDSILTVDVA
Procedure: as §1

168 GPCRs [3] = biological target: T3, 168 GPCRs (Homo sapiens, UniProt Q96LB1); experiment: as above; type: cell-based; conditions: GPCR MRGPRX2; Agonist mode; 10 uM
T3 construct: host or cells: PathHunter cell lines
T3 sequence (Q96LB1 whole entry): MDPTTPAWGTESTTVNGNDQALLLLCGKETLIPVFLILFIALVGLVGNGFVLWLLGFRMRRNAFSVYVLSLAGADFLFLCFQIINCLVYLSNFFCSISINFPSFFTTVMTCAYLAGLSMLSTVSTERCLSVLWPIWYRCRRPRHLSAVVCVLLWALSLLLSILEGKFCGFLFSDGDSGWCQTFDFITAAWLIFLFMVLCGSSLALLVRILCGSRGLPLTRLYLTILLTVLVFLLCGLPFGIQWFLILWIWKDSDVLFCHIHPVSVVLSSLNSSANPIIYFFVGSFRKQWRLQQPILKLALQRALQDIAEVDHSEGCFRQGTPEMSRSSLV
Procedure: as §1

168 GPCRs [4] = biological target: T4, 168 GPCRs (Homo sapiens, UniProt O95136); experiment: as above; type: cell-based; conditions: GPCR EDG5; Agonist mode; 10 uM
T4 construct: host or cells: PathHunter cell lines
Procedure: as §1

168 GPCRs [5] = biological target: T5, 168 GPCRs (Homo sapiens, UniProt P48145); experiment: as above; type: cell-based; conditions: GPCR NPBWR1; Agonist mode; 10 uM
T5 construct: host or cells: PathHunter cell lines
T5 sequence (P48145 whole entry): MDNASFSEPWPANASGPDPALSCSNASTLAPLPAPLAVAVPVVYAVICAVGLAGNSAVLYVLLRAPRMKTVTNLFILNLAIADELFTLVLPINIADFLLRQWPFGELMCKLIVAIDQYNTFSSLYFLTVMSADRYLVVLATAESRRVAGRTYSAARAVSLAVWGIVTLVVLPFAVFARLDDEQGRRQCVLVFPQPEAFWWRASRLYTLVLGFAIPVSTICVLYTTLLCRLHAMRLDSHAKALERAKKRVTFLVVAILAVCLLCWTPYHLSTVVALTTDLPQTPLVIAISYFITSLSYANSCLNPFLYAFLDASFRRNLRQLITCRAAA
Procedure: as §1

168 GPCRs [6] = biological target: T6, 168 GPCRs (Homo sapiens, UniProt P32247); experiment: as above; type: cell-based; conditions: BRS3; Agonist; 1 uM
T6 construct: host or cells: PathHunter cell lines
T6 sequence (P32247 whole entry): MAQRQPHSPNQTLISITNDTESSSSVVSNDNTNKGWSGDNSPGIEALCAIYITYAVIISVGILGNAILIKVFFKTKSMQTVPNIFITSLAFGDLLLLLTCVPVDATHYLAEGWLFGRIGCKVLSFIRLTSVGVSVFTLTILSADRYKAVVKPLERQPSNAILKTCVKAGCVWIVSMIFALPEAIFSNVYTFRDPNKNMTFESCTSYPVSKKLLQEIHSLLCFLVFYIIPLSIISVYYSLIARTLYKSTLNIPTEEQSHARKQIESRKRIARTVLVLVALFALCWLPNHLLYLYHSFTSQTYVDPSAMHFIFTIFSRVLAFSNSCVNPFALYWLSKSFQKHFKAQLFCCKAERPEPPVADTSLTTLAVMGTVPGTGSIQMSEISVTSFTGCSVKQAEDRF
Procedure: as §1

168 GPCRs [7] = biological target: T7, 168 GPCRs (Homo sapiens, UniProt P51679); experiment: as above; type: cell-based; conditions: CCR4; Agonist; 10 uM
T7 construct: host or cells: PathHunter cell lines
T7 sequence (P51679 whole entry): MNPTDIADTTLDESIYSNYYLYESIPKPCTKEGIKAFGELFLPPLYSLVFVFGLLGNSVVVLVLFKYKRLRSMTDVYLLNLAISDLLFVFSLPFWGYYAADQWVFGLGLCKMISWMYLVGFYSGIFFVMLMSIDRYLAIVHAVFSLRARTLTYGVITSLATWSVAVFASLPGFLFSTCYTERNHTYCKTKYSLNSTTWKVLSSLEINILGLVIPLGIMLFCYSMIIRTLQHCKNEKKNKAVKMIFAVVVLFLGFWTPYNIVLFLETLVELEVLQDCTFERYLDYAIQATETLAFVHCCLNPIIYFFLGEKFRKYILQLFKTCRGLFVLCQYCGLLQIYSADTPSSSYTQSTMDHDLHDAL
Procedure: as §1

168 GPCRs [8] = biological target: T8, 168 GPCRs (Homo sapiens, UniProt P25116); experiment: as above; type: cell-based; conditions: F2R; Agonist; 1 uM
T8 construct: host or cells: PathHunter cell lines
Procedure: as §1

168 GPCRs [9] = biological target: T9, 168 GPCRs (Homo sapiens, UniProt P25021); experiment: as above; type: cell-based; conditions: GPCR HRH2; Agonist mode; 10 uM
T9 construct: host or cells: PathHunter cell lines
Procedure: as §1

168 GPCRs [10] = biological target: T10, 168 GPCRs (Homo sapiens, UniProt P11229); experiment: as above; type: cell-based; conditions: CHRM1, Agonist
T10 construct: host or cells: PathHunter cell lines
T10 sequence (P11229 whole entry): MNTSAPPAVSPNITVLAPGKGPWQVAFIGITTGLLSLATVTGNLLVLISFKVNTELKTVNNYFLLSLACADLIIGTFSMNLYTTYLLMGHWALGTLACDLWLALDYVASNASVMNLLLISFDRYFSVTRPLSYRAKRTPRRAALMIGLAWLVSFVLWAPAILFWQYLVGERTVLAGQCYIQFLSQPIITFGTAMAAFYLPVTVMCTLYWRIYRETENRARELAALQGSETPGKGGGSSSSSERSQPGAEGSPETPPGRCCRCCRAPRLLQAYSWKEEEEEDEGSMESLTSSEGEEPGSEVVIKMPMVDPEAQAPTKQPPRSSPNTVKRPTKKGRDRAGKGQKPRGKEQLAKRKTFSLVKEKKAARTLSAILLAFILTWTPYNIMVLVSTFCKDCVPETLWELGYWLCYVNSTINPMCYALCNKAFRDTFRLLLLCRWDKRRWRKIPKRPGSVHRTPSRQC
Procedure: as §1

168 GPCRs [11] = biological target: T11, 168 GPCRs (Homo sapiens, UniProt P14416); experiment: as above; type: cell-based; conditions: GPCR DRD2L; Agonist mode; 10 uM
T11 construct: host or cells: PathHunter cell lines
T11 sequence (P14416 whole entry): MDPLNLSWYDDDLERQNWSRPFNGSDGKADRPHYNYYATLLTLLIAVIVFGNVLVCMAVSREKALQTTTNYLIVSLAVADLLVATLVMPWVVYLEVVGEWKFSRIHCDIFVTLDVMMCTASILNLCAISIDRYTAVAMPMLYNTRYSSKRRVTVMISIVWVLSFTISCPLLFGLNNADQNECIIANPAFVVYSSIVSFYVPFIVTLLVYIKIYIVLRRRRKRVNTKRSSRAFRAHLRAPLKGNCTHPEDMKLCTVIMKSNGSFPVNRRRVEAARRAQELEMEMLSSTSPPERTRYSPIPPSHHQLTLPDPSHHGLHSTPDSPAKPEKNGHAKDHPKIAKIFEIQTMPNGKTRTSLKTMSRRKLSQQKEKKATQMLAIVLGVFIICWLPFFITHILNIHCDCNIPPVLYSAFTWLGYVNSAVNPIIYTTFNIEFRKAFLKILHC
Procedure: as §1

168 GPCRs [12] = biological target: T12, 168 GPCRs (Homo sapiens, UniProt P25025); experiment: as above; type: cell-based; conditions: GPCR CXCR2; Agonist mode; 10 uM
T12 construct: host or cells: PathHunter cell lines
Procedure: as §1

168 GPCRs [13] = biological target: T13, 168 GPCRs (Homo sapiens, UniProt P32238); experiment: as above; type: cell-based; conditions: CCKAR; Agonist; 10 uM
T13 construct: host or cells: PathHunter cell lines
T13 sequence (P32238 whole entry): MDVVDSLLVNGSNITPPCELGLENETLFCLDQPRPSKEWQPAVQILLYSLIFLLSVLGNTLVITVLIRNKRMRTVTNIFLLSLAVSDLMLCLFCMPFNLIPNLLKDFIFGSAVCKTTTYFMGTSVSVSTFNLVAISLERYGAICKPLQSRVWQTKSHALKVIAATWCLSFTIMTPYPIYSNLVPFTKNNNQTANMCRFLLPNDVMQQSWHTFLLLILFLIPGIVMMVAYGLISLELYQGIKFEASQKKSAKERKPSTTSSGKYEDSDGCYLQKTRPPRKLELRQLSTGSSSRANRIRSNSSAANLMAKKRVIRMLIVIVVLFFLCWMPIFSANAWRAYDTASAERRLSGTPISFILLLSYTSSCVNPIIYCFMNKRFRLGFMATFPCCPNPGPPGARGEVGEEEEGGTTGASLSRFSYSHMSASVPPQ
Procedure: as §1

168 GPCRs [14] = biological target: T14, 168 GPCRs (Homo sapiens, UniProt P51677); experiment: as above; type: cell-based; conditions: CCR3; Agonist; 1 uM
T14 construct: host or cells: PathHunter cell lines
T14 sequence (P51677 whole entry): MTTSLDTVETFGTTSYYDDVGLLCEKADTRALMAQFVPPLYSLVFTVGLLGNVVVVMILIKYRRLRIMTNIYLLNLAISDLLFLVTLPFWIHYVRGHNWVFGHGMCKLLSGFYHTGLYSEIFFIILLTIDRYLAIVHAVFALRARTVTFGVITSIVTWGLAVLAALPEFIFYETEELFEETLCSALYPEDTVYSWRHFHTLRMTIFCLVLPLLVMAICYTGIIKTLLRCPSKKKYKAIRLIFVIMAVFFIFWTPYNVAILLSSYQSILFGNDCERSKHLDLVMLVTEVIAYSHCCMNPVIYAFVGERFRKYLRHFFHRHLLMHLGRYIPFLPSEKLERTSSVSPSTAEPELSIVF
Procedure: as §1

168 GPCRs [15] = biological target: T15, 168 GPCRs (Homo sapiens, UniProt O95977); experiment: as above; type: cell-based; conditions: GPCR EDG6; Agonist mode; 10 uM
T15 construct: host or cells: PathHunter cell lines
Procedure: as §1

168 GPCRs [16] = biological target: T16, 168 GPCRs (Homo sapiens, UniProt P23945); experiment: as above; type: cell-based; conditions: GPCR FSHR; Agonist mode; 10 uM
T16 construct: host or cells: PathHunter cell lines
Procedure: as §1

168 GPCRs [17] = biological target: T17, 168 GPCRs (Homo sapiens, UniProt P46092); experiment: as above; type: cell-based; conditions: CCR10; Agonist; 10 uM
T17 construct: host or cells: PathHunter cell lines
Procedure: as §1

168 GPCRs [18] = biological target: T18, 168 GPCRs (Homo sapiens, UniProt P51582); experiment: as above; type: cell-based
T18 construct: host or cells: PathHunter cell lines
T18 sequence (P51582 whole entry): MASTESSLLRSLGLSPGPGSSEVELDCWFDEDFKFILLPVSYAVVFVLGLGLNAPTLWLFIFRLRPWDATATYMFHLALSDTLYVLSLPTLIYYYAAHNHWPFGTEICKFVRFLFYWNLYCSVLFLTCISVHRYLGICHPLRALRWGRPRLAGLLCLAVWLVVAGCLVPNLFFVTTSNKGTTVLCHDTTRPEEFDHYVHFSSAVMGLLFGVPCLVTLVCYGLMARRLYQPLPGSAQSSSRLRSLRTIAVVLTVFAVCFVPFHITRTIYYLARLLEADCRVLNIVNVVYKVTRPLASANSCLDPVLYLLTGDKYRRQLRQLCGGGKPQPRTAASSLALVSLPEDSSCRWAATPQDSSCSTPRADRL
Procedure: as §1

168 GPCRs [19] = biological target: T19, 168 GPCRs (Homo sapiens, UniProt P30411); experiment: as above; type: cell-based; conditions: BDKRB2; Agonist; 10 uM
T19 construct: host or cells: PathHunter cell lines
Procedure: as §1

168 GPCRs [20] = biological target: T20, 168 GPCRs (Homo sapiens, UniProt P25024); experiment: as above; type: cell-based; conditions: GPCR CXCR1; Agonist mode; 10 uM
T20 construct: host or cells: PathHunter cell lines
T20 sequence (P25024 whole entry): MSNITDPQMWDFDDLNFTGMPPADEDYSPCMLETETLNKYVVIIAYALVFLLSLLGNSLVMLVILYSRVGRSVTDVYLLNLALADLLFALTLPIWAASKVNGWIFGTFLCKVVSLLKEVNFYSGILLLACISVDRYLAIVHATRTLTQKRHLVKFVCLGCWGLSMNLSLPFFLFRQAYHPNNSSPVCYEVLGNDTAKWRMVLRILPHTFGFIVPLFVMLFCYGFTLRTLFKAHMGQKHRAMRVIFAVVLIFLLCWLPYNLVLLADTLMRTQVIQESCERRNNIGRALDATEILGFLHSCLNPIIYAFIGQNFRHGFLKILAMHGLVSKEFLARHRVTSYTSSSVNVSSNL
Procedure: as §1

168 GPCRs [21] = biological target: T21, 168 GPCRs (Homo sapiens, UniProt P28222); experiment: as above; type: cell-based
T21 construct: host or cells: PathHunter cell lines
T21 sequence (P28222 whole entry): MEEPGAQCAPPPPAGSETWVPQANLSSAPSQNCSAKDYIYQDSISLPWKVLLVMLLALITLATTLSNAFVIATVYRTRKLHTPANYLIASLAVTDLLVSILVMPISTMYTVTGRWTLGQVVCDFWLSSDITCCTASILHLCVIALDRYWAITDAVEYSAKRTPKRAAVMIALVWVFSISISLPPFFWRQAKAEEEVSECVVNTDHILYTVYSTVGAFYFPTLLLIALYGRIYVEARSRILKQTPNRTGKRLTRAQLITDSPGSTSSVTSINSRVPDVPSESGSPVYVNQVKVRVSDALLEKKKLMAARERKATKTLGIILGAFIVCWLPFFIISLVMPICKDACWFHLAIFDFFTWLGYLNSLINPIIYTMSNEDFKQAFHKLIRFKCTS
Procedure: as §1

[22] = biological target: norepinephrine transporter (NET) (Rattus norvegicus, UniProt Q63380); experiment: Competitive radioligand binding, [3H]nisoxetine, rat brain lysates
Procedure: Radioligands used were: [^3H] Citalopram (PerkinElmer NET1039250UC); [^3H] Nisoxetine (PerkinElmer NET1084250UC); [^3H] WIN35428 (PerkinElmer NET1033250UC). […] Rat brains were dissected and tissue was homogenized in cold lysis buffer, centrifged at 100×g for 2 min and the supernatant was placed in a fresh tube. Supernatant was centrifuged at 13,000×g for 10 min at 4° C. to re-pellet the cell lysate. The pellet was resuspended in fresh wash buffer (50 mM Tris-HCl; 5 mM MgCl2; 5 mM EDTA) and centrifuged a third time. The pellet was then resuspended in wash buffer containing 10% sucrose as a cryoprotectant, divided into aliquots (0.3 mL) and stored at −80° C. A sample of the homogenate was analyzed for protein content using the SIGMA® BCA assay. On the day of the assay, the membrane preparation was thawed, and the pellet resuspended in final assay buffer. […] To each well was added 150 μL membranes, 50 μL of non-specific compound or buffer and 50 μL radioligand solution in buffer. […] Ki was subsequently calculated using the Cheng-Prusoff equation.

T1 sequence (P33032 whole entry): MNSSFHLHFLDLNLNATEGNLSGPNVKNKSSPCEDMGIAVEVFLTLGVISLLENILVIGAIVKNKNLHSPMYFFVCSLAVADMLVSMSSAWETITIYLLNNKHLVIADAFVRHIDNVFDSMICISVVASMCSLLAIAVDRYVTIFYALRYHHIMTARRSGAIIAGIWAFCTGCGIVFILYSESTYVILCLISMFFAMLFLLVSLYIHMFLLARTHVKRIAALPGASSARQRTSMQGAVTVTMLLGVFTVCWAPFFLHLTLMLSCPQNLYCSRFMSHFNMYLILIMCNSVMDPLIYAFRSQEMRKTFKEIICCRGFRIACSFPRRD

CNC(C)C(=O)c1ccc2c(c1)OCO2 (centres unmarked) [methylone, 3,4-methylenedioxy-N-methylcathinone]
activity at 10 µM (168 GPCRs [1]; GPCR MC5R, Agonist mode, 10 uM): -8.9%
activity at 1 µM (168 GPCRs [1]; MC5R, Agonist, 1 uM): ~-7%
activity at 1 µM (168 GPCRs [2]): -3.4%
activity at 10 µM (168 GPCRs [3]): 0.7%
activity at 10 µM (168 GPCRs [4]): -3.7%
activity at 10 µM (168 GPCRs [5]): ~-1%
activity at 1 µM (168 GPCRs [6]): -4.5%
activity at 10 µM (168 GPCRs [7]): -1.4%
activity at 1 µM (168 GPCRs [8]): -2.5%
activity at 10 µM (168 GPCRs [9]): -2.8%
activity at 1 µM (168 GPCRs [10]; 1 uM): -3.1%
activity at 10 µM (168 GPCRs [10]; 10 uM): -8.5%
activity at 10 µM (168 GPCRs [11]): -0.7%
activity at 10 µM (168 GPCRs [12]): -2.6%
activity at 10 µM (168 GPCRs [13]): -0.3%
activity at 1 µM (168 GPCRs [14]): -0.7%
activity at 10 µM (168 GPCRs [15]): -0.3%
activity at 10 µM (168 GPCRs [16]): -2.2%
activity at 10 µM (168 GPCRs [17]): ~-1%
activity at 10 µM (168 GPCRs [18]; GPCR P2RY4, Agonist mode, 10 uM): -4.1%
activity at 1 µM (168 GPCRs [18]; P2RY4, Agonist, 1 uM): ~-3%
activity at 10 µM (168 GPCRs [19]): -2.9%
activity at 10 µM (168 GPCRs [20]): -0.1%
activity at 10 µM (168 GPCRs [21]; GPCR HTR1B, Agonist mode, 10 uM): 8.7%
activity at 1 µM (168 GPCRs [21]; HTR1B, Agonist, 1 uM): ~3%
Ki [22]: 1.15 µM

Reference: patent US20250332139A1, “PS[…] AND THEIR USE FOR TREATING […] AND NE[…] DISORDERS” (Transcend Therapeutics, Inc., priority 2021, published 2025)
